Entries after “also recorded” stand apart in the source; their conditions may differ.
What was measured:
[1] = tested on: RYR2^R4650I/WT mouse model of CPVT; experiment: ectopy and induced VT in RYR2^R4650I/WT mouse model of CPVT, AAV delivery; type: in vivo
Description: FIGS. 2A-2G provide plots, a protein structure, schematics, a bar graph, and images showing how a therapeutic cargo containing a CaMKII inhibitor was optimized to treat catecholaminergic polymorphic ventricular tachycardia (CPVT) through altering potency, binding, and/or multimerization of the CaMKII inhibitor. FIG. 2A provides plots showing the IC50 concentrations for the autocamtide-2-related inhibitory peptide (AIP) and CN19o (Coultrap, et al. “Improving a Natural CaMKII Inhibitor by Random and Rational Design,” PLoS One, Oct. 3, 2011, doi.org/10.1371/journal.pone.0025245; and Ishida, et al, “Critical amino acid residues of AIP, a highly specific inhibitory peptide of calmodulin-dependent protein kinase II,” FEBS Letters, 427:115-118 (1998), the disclosures of which is incorporated herein by reference in its entirety for all purposes). […]
The development of improved agents for the treatment of CPVT, the CPVT treatment efficacy of polypeptides A) containing multiple repeats of AIP (FIG. 2C) or the potent CaMKII inhibitor CN19o or B) containing AIP or CN19o fused to FKBP12.6 (FIG. 2B), which binds RYR2, which is a target of CaMKII (FIG. 1A). […] The efficacy of the polypeptides in treatment of catecholaminergic polymorphic ventricular tachycardia (CPVT) was evaluated in the RYR2^R4650I/WT mouse model of CPVT as shown in FIG. 2D. […]

Tbx5 knockout mice = experiment: Example 5: beat-to-beat variability (EKG) in Tbx5 knockout mice (AF model); type: in vivo, mouse
Description: Two different atrial fibrillation (AF) mouse models were used to test the efficacy of AIP×5 at treating AF of different origins. The two different AF mouse models were liver kinase B1 (LKB1) knock out mice and T-box transcription factor 5 (Tbx5) knock out mice.
LKB1-floxed or Tbx5-floxed mice were used to test the efficacy of AIP×5. AAV-NPPA-Cre was then used to conditionally knock out LKB1 or Tbx5 from the atria of the mice. NPPA is an atria specific promoter, ensuring that Cre recombinase directed knockout of LKB1 or Tbx5 was restricted to the atria. AAV-NPPA-FP (fluorescent protein) was used as a control virus. AAV-NPPA-FP has no Cre, and therefore the gene of interest is not knocked out. Uninjected mice were also included as a control to account for any effects caused by AAV injections. AAV-cTnT-AIP×5 or AAV-cTnT-CN19o were both tested as potential therapies to AF.
In short, P3 LKB1-floxed or Tbx5-floxed mice were injected (or not injected in the uninjected controls), and then EKG measurements of the mice were taken every two weeks starting at P14. At 12 weeks, the mice were sacrificed, and the sacrificed mice were tested for protein expression.
AF was calculated using the standard deviation of the beat-to-beat timing differences. A high beat-to-beat variability when sedated was indicative of atrial misfiring. […]

LKB Flox/Flox mice = experiment: Example 4: beat to beat variation in LKB Flox/Flox mice with NPPA-Cre (atrial fibrillation model); type: in vivo, mouse; details: co-injection of NPPA-Cre and AIP×5-mcherry AAV; 2, 4 and 6 weeks
Description: FIGS. 7A and 7B provide plots showing the impact of AIP×5 administration on atrial fibrillation in a mouse model. LKB Flox/Flox mice were double injected with AAV-NPPA-Cre and AAV-AIP×5-mcherry (see FIG. 6). FIG. 7A provides plots showing results from an experiment where mice positive for the LKB1 flanked by LoxP sites (LKB1flox/flox) were injected with either AAV9-NPPA-RFP, AAV9-NPPA-Cre or double injections of AAV9-NPPA-Cre+AAV9-cTnT-AIP×5 at post-natal day 3 (P3). At two week intervals, ECG recordings for 3 minutes were performed under anesthesia. The time difference between two QRS complexes (RR interval) was plotted as a function of the following interval (RR+1). FIG. 7B provides a plot where the standard deviation of the RR intervals for a 1 minute recording was calculated for each animal at the time points shown.
Experiments were undertaken to evaluate the efficacy of AIP×5 administration in treatment of atrial fibrillation. LKB Flox/Flox mice were double injected with NPPA-Cre and AIP×5-mcherry using an AAV vector. The mice were a model for atrial fibrillation. […] It was evaluated whether co-injection with AAV-AIP×5 would reduce AF. Beat to beat variation in HR, an index of AF frequency, was analyzed by plotting each RR interval (R) versus the RR interval of the subsequent beat (RI) (n=˜500 beats) (FIG. 7A). […] HR beat to beat variation was analyzed at 2 weeks, 4 weeks, and 6 weeks.

With “YKKALHRQEAVDALYKKALHRQEAVDALYKKALHRQEAVDALYKKALHRQEAVDALYKKALHRQEAVDAL [AIP×5]” the “percent of mice that showed induced ventricular tachycardia (VT)” value ([1]; AAV vector (FIG. 2F)) was “reduction in instances of induced VT”, the “percent ectopy / CPVT treatment efficacy” value ([1]; RYR2^R4650I/WT mice, AAV vector (FIG. 2E, 2F)) was “greatest reduction in instances of ectopy; also recorded: most effective in treating CPVT” and the “suppression of beat-to-beat variability” value (Tbx5 knockout mice; AAV-cTnT vector, FIG. 11) was “reduction in beat-to-beat variability; also recorded: effective in suppressing beat-to-beat variability”. The “beat-to-beat variability, statistical difference to control” value (Tbx5 knockout mice; after week 4) was “no statistically significant difference in beat-to-beat variability” and the “symptoms of AF (beat to beat variation of RR interval)” value (LKB Flox/Flox mice) was “effective in reducing symptoms of AF”.

From patent US20250064983A1, “COMPOSITIONS AND METHODS FOR TREATING A CARDIAC DISEASE” (The Children's Medical Center Corporation, priority 2022, published 2025)
